Data from patent US20110195402A1, “SYSTEMS AND METHODS FOR DETECTING DRUG USE” (priority 2010, published 2011).
“And” between values parts separate entries of the source, which are not always exact repeats. Equal values may be shown once.

T1: lysozyme (Homo sapiens, UniProt P61626)
T1 sequence (P61626 19-148): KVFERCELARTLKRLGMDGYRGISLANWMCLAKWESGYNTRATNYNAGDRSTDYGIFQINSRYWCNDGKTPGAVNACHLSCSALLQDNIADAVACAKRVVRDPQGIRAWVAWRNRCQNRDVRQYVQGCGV

T2: α-amylase (Homo sapiens, UniProt P0DUB6)
T2 sequence (P0DUB6 16-511): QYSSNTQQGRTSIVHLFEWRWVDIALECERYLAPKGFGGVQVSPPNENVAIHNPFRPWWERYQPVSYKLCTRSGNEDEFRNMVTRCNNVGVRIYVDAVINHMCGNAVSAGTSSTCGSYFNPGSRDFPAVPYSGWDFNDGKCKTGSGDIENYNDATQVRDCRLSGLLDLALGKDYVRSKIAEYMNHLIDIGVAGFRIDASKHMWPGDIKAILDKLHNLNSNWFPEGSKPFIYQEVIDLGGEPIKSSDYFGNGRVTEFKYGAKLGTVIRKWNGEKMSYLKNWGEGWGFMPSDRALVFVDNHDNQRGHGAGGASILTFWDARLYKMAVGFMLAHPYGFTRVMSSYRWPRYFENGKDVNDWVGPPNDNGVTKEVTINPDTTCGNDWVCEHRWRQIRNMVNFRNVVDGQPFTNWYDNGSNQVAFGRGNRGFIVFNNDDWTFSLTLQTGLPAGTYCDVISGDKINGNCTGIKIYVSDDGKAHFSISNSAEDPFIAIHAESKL

B1: Soybeans: primary soybean protease inhibitor, 20.7-22.3 kDa (protein, UniProt P01070 25-205, looked up)
Trypsin inhibitor A: DFVLDNEGNPLENGGTYYILSDITAFGGIRAAPTGNERCPLTVVQSRNELDKGIGTIISSPYRIRFIAEGHPLSLKFDSFAVIMLCVGIPTEWSVVEDLPEGPAVKIGENKDAMDGWFRLERVSDDEFNNYKLVFCPQQAEDDKCGDIGISIDHDDGTRRLVVSKNKPLVVQFQKLDKESL

Key:
[1] = molecular target: T1, lysozyme; assay: Lysozyme inhibition saliva screening (fluorescein-labeled Micrococcus lysodeikticus); assay type: biochemical; conditions: 100% saliva samples (data not shown)
Source text: Further details of these five compounds may also be seen in Table 5.

[2] = system: peroxidase; assay: Peroxidase assay in saliva (Amplex Red); assay type: biochemical; conditions: test compound at 500 ppm, pooled or unpooled saliva, 30 minutes; FIGS. 26-29
Method: To determine the effect of various GRAS compounds as inhibitors of peroxidase activity, a standard assay using Amplex® Red (Life Technologies), which releases a fluorescent oxidation product.
The test compounds, such as GRAS materials or cocktails of same, were prepared at a concentration of 500 ppm in distilled water. For the assay, 50 μl samples of test compounds were mixed with 20-30 μl of saliva (either “pooled” or “unpooled”) prior to the addition of Amplex® Red. […] Reactions were allowed to run for 30 minutes during these assays.

[3] = molecular target: T2, α-amylase; assay: α-Amylase inhibition saliva screening (2-chloro-p-nitrophenol-maltotriose substrate, 405 nm); assay type: biochemical; conditions: for Ave (reading, absorbance at 405 nm) / reading (absorbance at 405 nm), single replicates: test compound prepared at 5,000 ppm, 37° C., control column '100% Saliva'; for inhibition of α-Amylase: 100% saliva samples, FIG. 11; for α-Amylase Inhibitor Activity: dilute (3.5%) saliva, FIG. 10
Source text: Further details of these five compounds may also be seen in Table 4.

[4] = system: protease; conditions: natural protease inhibitor; Table II; cited from earlier work

Molecule	peroxidase inhibition [2]	Ave (reading, absorbance at 405 nm) ([3]; 0 min)	inhibition of α-Amylase [3]	Ave (reading, absorbance at 405 nm) ([3]; 5 min)	Ave (reading, absorbance at 405 nm) ([3]; 15 min)	α-Amylase Inhibitor Activity [3]	further results
O=C(O)c1ccccc1 [CDI-40, Benzoic acid]							inhibition of Lysozyme [1]: inhibit Lysozyme
COc1ccc(O)c(C(C)(C)C)c1 [CDI-39, 3-tert--butyl-hydroxyanisole]	significant peroxidase inhibition capabilities						
Aluminum sulfate hydrate [CDI-34]		0.40	inhibit α-Amylase	0.50	0.56	α-Amylase Inhibitor Activity	reading (absorbance at 405 nm), single replicates ([3]; 0 min, sulfate hydrate): 0.40 (2×) and 0.36 and 0.45; reading (absorbance at 405 nm), single replicates ([3]; 5 min, sulfate hydrate): 0.49 and 0.50 (2×) and 0.52; reading (absorbance at 405 nm), single replicates ([3]; 15 min, sulfate hydrate): 0.53 and 0.61 and 0.54 and 0.56
Aluminum potassium sulfate dodecahydrate [CDI-42]	significant peroxidase inhibition capabilities	0.92	inhibit α-Amylase	1.85	2.29	α-Amylase Inhibitor Activity	reading (absorbance at 405 nm), single replicates ([3]; 0 min): 0.80 and 1.13 and 0.90 and 0.84; reading (absorbance at 405 nm), single replicates ([3]; 5 min): 1.65 and 2.15 and 1.80 and 1.81; reading (absorbance at 405 nm), single replicates ([3]; 15 min): 2.37 and 2.38 and 2.25 and 2.17
Cn1c(=O)c2c(ncn2C)n(C)c1=O [CDI-33, Caffeine]	significant peroxidase inhibition capabilities						
B1							Inhibitory power [4]: 1.2 times times weight
